Literature values in patent publication US12165861B2, “Mass spectrometry method for measuring vitamin B6 in body fluid” (Quest Diagnostics Investments Incorporated, priority 2007, dated 2024).

Substance: vitamin B6
- time to plasma peak (100 mg of vitamin B6, under normal conditions): 2 h
- half-life (100 mg of vitamin B6, under normal conditions, plasma): 8 h
- change in plasma PLP (doses of over 25 mg): little change
